Values joined by “and” are separate entries in the source; they are usually repeats but may differ in a detail not shown here. Equal values may be shown once.
Tests used:
[1] = In vitro-in vivo extrapolation (IVIVE) to estimate Css, human; details: for Css / Css (steady-state concentration, plasma): IVIVE, BW 70 kg; for Css: ID 0.042 mg/kg/hr; for Css (steady-state concentration, plasma): intake dosage 1 mg/kg/day; for fraction unbound: blood, fub=fup/(1-hemocrit ref value), hematocrit 0.45; for Clint: scaled (HPGL 110, Vl 1596 g)
Experimental: (§1) Fraction unbound (fu) in plasma (fup) and percent stability calculations are detailed in Supplementary Text S10. Hepatic clearance, the fu in blood (fub) (fu in plasma adjusted for blood:plasma partitioning), and renal clearance were used to derive the steady-state concentration (Css) of each compound that will be used for in vitro–in vivo extrapolation (IVIVE). Renal clearance was calculated using the glomerular filtration rate (a species-dependent constant) and the fub. The Css calculation is detailed in Supplementary Text S11.
(§2) Linear regression analysis in conjunction […]
(§3) cells in the Clint equation. […]
(§4) concentration by the T300 min concentration (Equation E). Chemical stability in plasma was assessed […]
(§5) (F) Percent Stability = T300minutesT60minutes∗100 […]
(§6) blood (fub) of the parent compound. The Clhepatic calculation is shown in the second part of the denominator of Equation G; it is the product of the species dependent liver blood flow constant, the fub of the parent compound, and the experimentally derived intrins ic clearance (s hown in Equation D) divided by the sum these three values. All values used in Equation G are for first order conditions of metabolism in the liver. All calculations, scalars, and species dependent values used to conduct the Css calculation to facilitate in vitro-in vivo extrapolation (IVIVE) are provided Table S19 within the Excel worksheet, the tab […]
(§7) Based on the principle of reverse dosimetry, the Css values derived from IVIVE will be u sed as conversion factors to generate AEDs according to Equation H. In this equation, the AED is linearly related to the in vitro concentration and inversely related to the Css. It is only valid for first-order metabolism that is expected at ambient exposure levels.
(§8) (H) AED ൮ mgkg൲ = in vitro concentration (µM )

rat hepatocytes = test: Hepatocyte metabolic stability (clearance) assay, rat hepatocytes; details: for Negative Control Data, Heat Treated (HT), 15 min / Negative Control Data, Heat Treated (HT), 240 min: heat treated rat hepatocytes; for Negative Control Data, Heat Treated (HT), 15 min / Negative Control Data, Heat Treated (HT), 240 min / Negative Control Data, No cells (NC), 15 min / Negative Control Data, No cells (NC), 240 min / Ln Concentration, 0 min / Ln Concentration, 15 min / Ln Concentration, 30 min / Ln Concentration, 60 min / Ln Concentration, 120 min / Ln Concentration, 240 min / Linear Regression Best-Fit Slope (Ln concentration vs time): 1000 nM; for Negative Control Data, Heat Treated (HT), 15 min / Negative Control Data, Heat Treated (HT), 240 min / Negative Control Data, No cells (NC), 15 min / Negative Control Data, No cells (NC), 240 min: Ln concentration; for Negative Control Data, Heat Treated (HT), 15 min / Negative Control Data, Heat Treated (HT), 240 min / Negative Control Data, No cells (NC), 15 min / Negative Control Data, No cells (NC), 240 min / Ln Concentration, 0 min / Ln Concentration, 15 min / Ln Concentration, 30 min / Ln Concentration, 60 min / Ln Concentration, 120 min / Ln Concentration, 240 min: Rep 1-3; for Clin vitro: rat hepatocytes, 1 µM; for Ln Concentration, 0 min / Ln Concentration, 15 min / Ln Concentration, 30 min / Ln Concentration, 60 min / Ln Concentration, 120 min / Ln Concentration, 240 min / Linear Regression Best-Fit Slope (Ln concentration vs time): suspended rat hepatocytes; for Linear Regression Best-Fit Slope (Ln concentration vs time): time in min
Experimental: (§9) Information on the chemicals and materials used in the hepatocyte metabolic work can be found in Supplementary Text S9 and Table S3. In vitro evaluations of hepatocyte metabolic stability were performed in human and rat hepatocytes, as previously described. Briefly, pooled, cryopreserved hepatocyte suspensions were thawed, assessed for viability, and then diluted in William’s medium E containing dexamethasone and cell maintenance cocktail B to achieve a cell density of 50,000 cells/100 µL. The assay was started by adding hepatocyte suspensions to wells of 96-well polypropylene plates containing an equal volume of media with 2 µM of analyte (final assay concentration: 1 µM). Plates were placed in a 37 °C cell culture incubator (5% CO2) on a shaker set to 200 rpm. Time points assessed were T0, T15, T30, T60, T120, and T240 min. At each time point, the plates were removed from the shaker and the incubates were crashed with an equal volume of ice-cold ACN containing 1.2% FA and 16 ng/mL of ^13C3 -HFPO-DA. After chilling and centrifugation at 4122× g, the supernatants were transferred to new collection plates and stored at −70 °C until analysis for the parent compound on the Waters instrumentation described below. Immediately prior to analysis, samples were thawed, vortexed, and centrifuged at 4200× g, and then diluted 1:4 in 95:5 H2O/ACN with 2.5 mM of ammonium acetate. Negative controls, including no cell controls and metabolically inactivated hepatocytes, were run concurrently to assess the chemical stability over the time course.
(§10) Intrinsic clearance (Clint; hepatic clearance) calculations are detailed in Supplementary Text S9 [57].
(§11) Targeted, quantitative analysis of in vitro hepatocyte metabolic stability and plasma protein binding assay samples was conducted on a Waters Xevo-TQS micro mass spectrometer (Waters, Milford, MA, USA) ultra-high-performance liquid chromatography tandem mass spectrometry system (UPLC-MS/MS), modified with a PFAS analysis kit. Samples were analyzed in negative ion mode with UniSpray ionization. A CORTECS T3 column (Waters CORTECS, 3 × 100 mm, particle size 2.7 µm) was used for chromatographic separation with a flow rate of 0.6 mL/min and a temperature of 55 °C. Gradient elution was used with eluent A (95:5 H2O/ACN) and eluent B (95:5 ACN/H2O) with 2.5 mM of ammonium acetate. The gradient is available in Table S11. Additional details for MS parameters are found in Table S12 and monitored transitions are found in Table S13.
(§12) Table S2: Data processing parameters used with Sciex MarkerView 1.3.1.
(§13) Support ing Text S9: Hepatocyte Metabolic Stability Assay Materials, Chemicals, and Calculations
(§14) Pooled human and rat cryopreserved primary hepatocyte suspensions were both obtained from
(§15) BioIVT, a US Food and Drug Administration-licensed and inspected donor center, and produced using
(§16) non-transplantable tissue.
(§17) William’s E media, dexamet hasone (98% pure), and cell maintenance cocktail B were obtained from
(§18) Thermo Fisher Scientific (Waltham, MA, USA), the OptiThaw hepatocyte kit from Sekisui/Xenotech
(§19) (Tokyo, Japan), and the trypan blue s (Sekisui/ Xenotech, Tokyo, Japan) and the trypan blue solution from […]

[2] = In vitro-in vivo extrapolation (IVIVE) to estimate Css, rat; details: for Css / Css (steady-state concentration, plasma): IVIVE, BW 0.25 kg; for Css: ID 0.042 mg/kg/hr; for Css (steady-state concentration, plasma): intake dosage 1 mg/kg/day; for fraction unbound at 300 min: Sprague Dawley, blood, fub=fup/(1-hemocrit ref value), hematocrit 0.439; for Clint: scaled (HPGL 117, Vl 9.5 g)
Experimental: as §1, §2, §3, §4, §5, §6, §7, §8

human hepatocytes = test: Hepatocyte metabolic stability (clearance) assay, human hepatocytes; details: for Negative Control Data, No cells (NC), Ln Concentration / Negative Control Data, Heat Treated (HT), Ln Concentration / Ln Concentration / Linear Regression Best-Fit Slope (ln concentration vs time): 1000 nM; for Negative Control Data, No cells (NC), Ln Concentration / Negative Control Data, Heat Treated (HT), Ln Concentration / Ln Concentration: Rep 1-3; for Clin vitro / Negative Control Data, Heat Treated (HT), Ln Concentration / Ln Concentration / Linear Regression Best-Fit Slope (ln concentration vs time): human hepatocytes; for Clin vitro: 1 µM; for Linear Regression Best-Fit Slope (ln concentration vs time): time in min
Experimental: as §9, §10, §11, §12, §13, §14, §15, §16, §17, §18, §19

SMILES	Clhep (hepatic clearance) [1] [L/h]	Css [1] [ng/mL]	Css (steady-state concentration, plasma) [1]	fraction unbound [1]	Clint [1] [µL/min]	Negative Control Data, Heat Treated (HT), 15 min (rat hepatocytes)	Negative Control Data, Heat Treated (HT), 240 min (rat hepatocytes)	Negative Control Data, No cells (NC), 15 min (rat hepatocytes)	Negative Control Data, No cells (NC), 240 min (rat hepatocytes)	Clin vitro (rat hepatocytes) [µL/min/106 cells]	Ln Concentration, 0 min (rat hepatocytes)	Ln Concentration, 15 min (rat hepatocytes)	Ln Concentration, 30 min (rat hepatocytes)	Ln Concentration, 60 min (rat hepatocytes)	Ln Concentration, 120 min (rat hepatocytes)	Ln Concentration, 240 min (rat hepatocytes)	Linear Regression Best-Fit Slope (Ln concentration vs time) (rat hepatocytes)	Clhep (hepatic clearance) [2] [L/h]	Css [2] [ng/mL]	Css (steady-state concentration, plasma) [2]	also measured
O=C(O)C(F)(OC(F)(F)C(F)(OC(F)(F)C(F)(OC(F)(F)C(F)(F)C(F)(F)F)C(F)(F)F)C(F)(F)F)C(F)(F)F (centres unmarked) [HFPO-TeA, perfluoro-(2,5,8-trimethyl-3,6,9-trioxadodecanoic) acid]	0	19420	29.34 µM and 29.3351 µM	0.0226	0	2.6401 and 2.4357 and 2.5979	3.3942 and 3.4965 and 3.9620	2.6401 and 2.4357 and 2.5979	3.6957 and 3.6025 and 3.5122	0	3.0306 and 2.9008 and 2.9997	3.0932 and 2.2706 and 2.9515	4.2083 and 3.3638 and 2.7617	3.2078 and 2.9997 and 2.8429	4.0404 and 3.2267 and 2.8611	4.3810 and 4.0785 and 4.0446	0.001258	0	12550	19 µM and 18.96 µM and 18.9581 µM	fraction unbound at 300 min [2]: 0.0105; Clint [2]: 0 µL/min; Negative Control Data, No cells (NC), Ln Concentration (human hepatocytes; 15 min): 3.2431 and 3.8547 and 4.8392; Negative Control Data, No cells (NC), Ln Concentration (human hepatocytes; 240 min): 4.3983 and 4.1513 and 4.1952; Clin vitro (human hepatocytes): 0 µL/min/106 cells; Negative Control Data, Heat Treated (HT), Ln Concentration (human hepatocytes; 15 min): 3.2431 and 3.8547 and 4.8392; Negative Control Data, Heat Treated (HT), Ln Concentration (human hepatocytes; 240 min): 3.9071 and 4.4271 and 4.0870; Ln Concentration (human hepatocytes; time 0 min): 4.4318 and 4.5113 and 4.4280; Ln Concentration (human hepatocytes; time 15 min): 4.5753 and 4.4697 and 3.8582; Ln Concentration (human hepatocytes; time 30 min): 3.6875 and 3.5788 and 3.6553; Ln Concentration (human hepatocytes; time 60 min): 3.0465 and 3.5032 and 3.8121; Ln Concentration (human hepatocytes; time 120 min): 4.2197 and 4.3067 and 4.1488; Ln Concentration (human hepatocytes; time 240 min): 3.9567 and 3.8156 and 4.0422; Linear Regression Best-Fit Slope (ln concentration vs time) (human hepatocytes): 0.001224
O=C(O)C(F)(OC(F)(F)C(F)(F)C(F)(F)F)C(F)(F)F (centres unmarked) [HFPO-DA, perfluoro-2-methyl-3-oxahexanoic acid]	0	24670	74.75 µM and 74.7454 µM	0.0178	0	4.4280 and 4.9483 and 5.2322	4.4378 and 4.5247 and 4.4650	4.4280 and 4.9483 and 5.2322	4.5318 and 4.4615 and 4.4489	0	4.5114 and 4.4660 and 4.4552	4.5017 and 4.4578 and 4.5341	4.4026 and 4.3249 and 4.4576	4.2774 and 4.4540 and 4.5417	4.3832 and 4.5273 and 4.3707	4.5604 and 4.5454 and 4.5567	0.0002303	0	2400	7.27 µM and 7.2674 µM	fraction unbound at 300 min [2]: 0.0547; Clint [2]: 0 µL/min; Negative Control Data, No cells (NC), Ln Concentration (human hepatocytes; 15 min): 4.4067 and 4.8800 and 5.2467; Negative Control Data, No cells (NC), Ln Concentration (human hepatocytes; 240 min): 4.0348 and 4.0907 and 4.1657; Clin vitro (human hepatocytes): 0 µL/min/106 cells; Negative Control Data, Heat Treated (HT), Ln Concentration (human hepatocytes; 15 min): 4.4067 and 4.8800 and 5.2467; Negative Control Data, Heat Treated (HT), Ln Concentration (human hepatocytes; 240 min): 4.6325 and 4.7203 and 4.8737; Ln Concentration (human hepatocytes; time 0 min): 4.0945 and 4.2370 and 4.1735; Ln Concentration (human hepatocytes; time 15 min): 4.1372 and 3.3218 and 3.8504; Ln Concentration (human hepatocytes; time 30 min): 4.2468 and 4.1368 and 4.2711; Ln Concentration (human hepatocytes; time 60 min): 4.1233 and 4.2750 and 4.2651; Ln Concentration (human hepatocytes; time 120 min): 4.3345 and 4.3751 and 4.3328; Ln Concentration (human hepatocytes; time 240 min): 4.9658 and 4.7177 and 4.8428; Linear Regression Best-Fit Slope (ln concentration vs time) (human hepatocytes): 0.0006364
